From patent publication US8399429B2, “Uracyl cyclopropyl nucleotides” (Janssen Products, LP, priority 2008, dated 2013)
pEC50: −log10 of the molar value.

Assays:
[1] = Cellular toxicity in the HIV cell-line (MT-4); type: cell-based, human; details: human
Procedure: (§1) Compounds of the invention were tested for their potency against wild type human immunodeficiency virus (HIV). Antiviral activity was evaluated using a cellular assay performed according to the following procedure. The human T-cell line MT4 was engineered with Green Fluorescent Protein (GFP) and a HIV-specific promoter, HIV-1 long terminal repeat (LTR). This cell line, designated MT4 LTR-EGFP, can be used for the in vitro evaluation of anti-HIV activity of investigational compounds. In HIV-1 infected cells, the Tat protein is produced, which upregulates the LTR promotor and eventually leads to stimulation of the GFP reporter production, allowing to measure ongoing HIV-infection fluorometrically. Effective concentration values such as 50% effective concentration (EC50) can be determined and are usually expressed in μM. An EC50 value is defined as the concentration of test compound that reduces the fluorescence of HIV-infected cells by 50%. Monitoring of HIV-1 infection was done using a scanning microscope. Image analysis allows very sensitive detection of viral infection. Measurements were done before cell necrosis, which usually takes place about five days after infection, in particular measurements were performed three days after infection. The column IIIB in the table list the EC50 values against the wild type strain IIIB.
Also the HIV activity is given (EC50 HIV (μM)) and the cellular toxicity in the HIV cell-line (CC50 (μM) (MT-4)).

[2] = tested on: wild type human immunodeficiency virus (HIV) strain IIIB; assay: HIV assay in MT4 LTR-EGFP cells; type: cell-based, HIV-1; details: Human immunodeficiency virus 1, IIIB, 72 h, three days after infection
Procedure: as §1

[3] = Cellular toxicity in Huh7-CMV-Luc replicon assay; type: cell-based; details: human, Huh7-CMV-Luc cells, three days incubation, Luc activity; read-out: CC50 (μM) (Huh-7)
Procedure: Cellular toxicity was determined in the Huh7-CMV-Luc replicon assay. Replicon cells (2500 cells/well), stably transformed with a luciferase reporter gene under control of the cytomegalovirus (CMV) constitutive promotor, were cultured in the presence or absence of test compound concentrations. After three days of incubation at 37° C. in a humidified 5% CO2 atmosphere, cell proliferation was quantified by measuring the Luc activity, and expressed as CC50 values (cytotoxicity, 50% inhibitory concentration of cell growth). Tests were performed in 384-well plates.

[4] = tested on: HCV replicon (Huh-7 luc/neo, NS3-NS5B of HCV type 1b); assay: HCV replicon assay (Huh-Luc, luciferase readout); type: cell-based; details: Hepatitis C virus, Huh-7, 72 h, Huh-Luc cells, HCV type 1b replicon, three days incubation, luciferase activity
Source text: The compounds of formula I were examined for activity in the inhibition of HCV RNA replication in a cellular assay aimed at identifying compounds that inhibit a HCV functional cellular replicating cell line, also known as HCV replicons. The cellular assay was based on a bicistronic expression construct, as described by Lohmann et al. (1999), Science vol. 285 pp. 110-113 with modifications described by Krieger et al. (2001), Journal of Virology 75: 4614-4624, in a multi-target screening strategy.
The assay utilized the stably transfected cell line Huh-7 luc/neo (hereafter referred to as Huh-Luc). This cell line harbors an RNA encoding a bicistronic expression construct comprising the wild type NS3-NS5B regions of HCV type 1b translated from an Internal Ribosome Entry Site (IRES) from encephalomyocarditis virus (EMCV), preceded by a reporter portion (FfL-luciferase), and a selectable marker portion (neoR, neomycine phosphotransferase). The construct is bordered by 5′ and 3′ NTRs (non-translated regions) from HCV type 1b. Continued culture of the replicon cells in the presence of G418 (neo^R) is dependent on the replication of the HCV RNA. The stably transfected replicon cells that express HCV RNA, which replicates autonomously and to high levels, encoding inter alia luciferase, were used for screening the antiviral compounds.
The replicon cells were plated in 384 well plates in the presence of the test and control compounds which were added in various concentrations. Following an incubation of three days, HCV replication was measured by assaying luciferase activity (using standard luciferase assay substrates and reagents and a Perkin Elmer ViewLux™ ultraHTS microplate imager). Replicon cells in the control cultures have high luciferase expression in the absence of any inhibitor. The inhibitory activity of the compound on luciferase activity was monitored on the Huh-Luc cells, enabling a dose-response curve for each test compound. EC50 values were then calculated, which value represents the amount of the compound required to decrease the level of detected luciferase activity by 50%, or more specifically, the ability of the genetically linked HCV replicon RNA to replicate.

Row | SMILES | CC50 [1] | pEC50 [2] | CC50 at 3 days [3] | EC50 [4]
1 | CC(C)COC(=O)[C@H](C)NP(=O)(OC[C@H]1O[C@@H](n2ccc(=O)[nH]c2=O)C2(CC2)[C@@H]1O)Oc1ccccc1 (stereo partly drawn) [Compound 13] | > 98 µM | < 4.01 | > 98 µM | 3.2 µM
2 | C[C@H](NP(=O)(OC[C@H]1O[C@@H](n2ccc(=O)[nH]c2=O)C2(CC2)[C@@H]1O)Oc1ccccc1)C(=O)OC1CCCC1 (stereo partly drawn) [Compound 14] | > 98 µM | < 4.01 | > 98 µM | 3.3 µM
3 | CCCCOC(=O)[C@H](C)NP(=O)(OC[C@H]1O[C@@H](n2ccc(=O)[nH]c2=O)C2(CC2)[C@@H]1O)Oc1cccc2ccccc12 (stereo partly drawn) [Compound 15] | > 60 µM | < 4.22 | > 98 µM | 3.6 µM
4 | C[C@H](NP(=O)(OC[C@H]1O[C@@H](n2ccc(=O)[nH]c2=O)C2(CC2)[C@@H]1O)Oc1ccc2c(ccn2C(=O)OC(C)(C)C)c1)C(=O)OCc1ccccc1 (stereo partly drawn) [Compound 16] | > 32 µM | < 4.01 | > 32 µM | 4.2 µM
5 | CCOC(=O)[C@H](Cc1ccccc1)NP(=O)(OC[C@H]1O[C@@H](n2ccc(=O)[nH]c2=O)C2(CC2)[C@@H]1O)Oc1ccccc1 (stereo partly drawn) [Compound 17] | > 98 µM | < 4.01 | > 98 µM | 4.4 µM
6 | C=CCCCCOC(=O)[C@H](C)NP(=O)(OC[C@H]1O[C@@H](n2ccc(=O)[nH]c2=O)C2(CC2)[C@@H]1O)Oc1ccc(CC=C)cc1OC (stereo partly drawn) [Compound 18] | > 64 µM | < 4.01 | > 98 µM | 5.1 µM
7 | C[C@H](NP(=O)(OC[C@H]1O[C@@H](n2ccc(=O)[nH]c2=O)C2(CC2)[C@@H]1O)Oc1ccc(C(C)(C)C)cc1)C(=O)OCc1ccccc1 (stereo partly drawn) [Compound 19] | > 32 µM | < 4.49 | > 32 µM | 7.2 µM
8 | C[C@H](NP(=O)(OC[C@H]1O[C@@H](n2ccc(=O)[nH]c2=O)C2(CC2)[C@@H]1O)Oc1ccc2[nH]ccc2c1)C(=O)OCc1ccccc1 (stereo partly drawn) [Compound 20] | > 98 µM | < 4.01 | > 32 µM | 7.6 µM
9 | CC[C@H](NP(=O)(OC[C@H]1O[C@@H](n2ccc(=O)[nH]c2=O)C2(CC2)[C@@H]1O)Oc1ccccc1)C(=O)OCc1ccccc1 (stereo partly drawn) [Compound 21] | > 80 µM | < 4.01 | > 98 µM | 7.8 µM
10 | Cc1ccc(C(C)C)c(OP(=O)(N[C@@H](C)C(=O)OCc2ccccc2)OC[C@H]2O[C@@H](n3ccc(=O)[nH]c3=O)C3(CC3)[C@@H]2O)c1 (stereo partly drawn) [Compound 22] | 2.1 µM | 5.78 | > 32 µM | 9.2 µM
11 | CCCCCCCCOC(=O)[C@H](C)NP(=O)(OC[C@H]1O[C@@H](n2ccc(=O)[nH]c2=O)C2(CC2)[C@@H]1O)Oc1ccc(Cl)cc1 (stereo partly drawn) [Compound 23] | > 30 µM | < 4.01 | > 32 µM | 11.2 µM
12 | CCC(C)OC(=O)[C@H](C)NP(=O)(OC[C@H]1O[C@@H](n2ccc(=O)[nH]c2=O)C2(CC2)[C@@H]1O)Oc1ccccc1 (stereo partly drawn) [Compound 24] | > 98 µM | < 4.01 | > 98 µM | 12.4 µM
13 | Cc1ccc(C(C)C)cc1OP(=O)(N[C@@H](C)C(=O)OCc1ccccc1)OC[C@H]1O[C@@H](n2ccc(=O)[nH]c2=O)C2(CC2)[C@@H]1O (stereo partly drawn) [Compound 25] | 23 µM | < 4.01 | > 32 µM | 23.1 µM
14 | CCOC(=O)c1ccccc1OP(=O)(N[C@@H](C)C(=O)OCc1ccccc1)OC[C@H]1O[C@@H](n2ccc(=O)[nH]c2=O)C2(CC2)[C@@H]1O (stereo partly drawn) [Compound 34] |  |  | > 98 µM | 11 µM
